The source of these data is PubChem BioAssay AID328 (DTP/NCI, 2004).

The assay relates to BDF1 mice, P388 leukemia ip, median survival T/C. Briefly: NCI In Vivo Anticancer Drug Screen. Data for tumor model P388 Leukemia (intraperitoneal) in B6D2F1 (BDF1) mice. The settings on record: endpoint: median survival time, higher = longer survival. A digest of the protocol: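 Reported as T/C, where T is the survival measurement in dosed animals and C the same measurement in vehicle controls.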

Setting [1] is: dose: 4.0 mg/kg/injection, schedule: Q01DX009 (ip), vehicle: saline.
[2] abbreviates: dose: 25.0 mg/kg/injection, schedule: Q01DX009 (ip), vehicle: saline.
[3] abbreviates: dose: 50.0 mg/kg/injection, schedule: Q01DX009 (ip), vehicle: saline.
Setting [4] is: dose: 50.0 mg/kg/injection, schedule: Q04DX003 (ip), vehicle: saline.
Where [5] appears, read: dose: 100.0 mg/kg/injection, schedule: Q01DX009 (ip), vehicle: saline.
The mark [6] stands for this setting: dose: 100.0 mg/kg/injection, schedule: Q04DX003 (ip), vehicle: saline.
Setting [7] is: dose: 200.0 mg/kg/injection, schedule: Q04DX003 (ip), vehicle: saline.
[8] abbreviates: dose: 100.0 mg/kg/injection, schedule: Q04DX003 (ip), vehicle: saline with Tween-80.
[9] abbreviates: dose: 200.0 mg/kg/injection, schedule: Q04DX003 (ip), vehicle: saline with Tween-80.
[10] abbreviates: dose: 400.0 mg/kg/injection, schedule: Q04DX003 (ip), vehicle: saline with Tween-80.
The mark [11] stands for this setting: dose: 50.0 mg/kg/injection, schedule: Q01DX009 (ip), vehicle: saline with Tween-80.
[12] abbreviates: dose: 100.0 mg/kg/injection, schedule: Q01DX009 (ip), vehicle: saline with Tween-80.
The mark [13] stands for this setting: dose: 200.0 mg/kg/injection, schedule: Q01DX009 (ip), vehicle: saline with Tween-80.
The mark [14] stands for this setting: dose: 12.5 mg/kg/injection, schedule: Q01DX009 (ip), vehicle: saline.
[15] abbreviates: dose: 400.0 mg/kg/injection, schedule: Q01DX009 (ip), vehicle: saline with Tween-80.

Toxic doses and inconclusive results are not listed.

With `N=C(N)CCNC(=O)C1CCC(N)=N1` (centres undefined), the T/C (dose: 2.0 mg/kg/injection, schedule: Q01DX009 (ip), vehicle: saline) is 91 % of control; the T/C under setting [1] is 100 % of control; the T/C (dose: 8.0 mg/kg/injection, schedule: Q01DX009 (ip), vehicle: saline) is 108 % of control.

`COC(OC)c1cc(=O)[nH]c(=S)[nH]1`: the T/C is 100 % of control (dose: 100.0 mg/kg/injection, schedule: Q01DX001 (ip), vehicle: Klucel (hydroxypropylcellulose) (HPC)); 109 % of control (dose: 200.0 mg/kg/injection, schedule: Q01DX001 (ip), vehicle: Klucel (hydroxypropylcellulose) (HPC)); 90 % of control (dose: 400.0 mg/kg/injection, schedule: Q01DX001 (ip), vehicle: Klucel (hydroxypropylcellulose) (HPC)).

Consider `CCOC(=O)c1cnc(C)[nH]c1=O`, for which the T/C was 113 % of control under setting [2]; 118 % of control under setting [3]; 100 % of control under setting [4]; 100 % of control under setting [5]; 104 % of control under setting [6]; 86 % of control under setting [7].

As for `CCCO/C(N)=N/OS(=O)(=O)c1ccccc1`, the T/C was 97 % of control under setting [8], 99 % of control under setting [9] and 96 % of control under setting [10].

Consider `O=C1/C(=C\c2ccc(Cl)cc2Cl)SC(=S)N1Cc1ccco1`, for which the T/C is 97 % of control under setting [11], 91 % of control under setting [12] and 88 % of control under setting [13].

In the case of `O=[N+]([O-])C(CO)(CO)CC(F)(F)F`, the T/C (dose: 3.13 mg/kg/injection, schedule: Q01DX009 (ip), vehicle: saline) was 100 % of control; the T/C (dose: 3.13 mg/kg/injection, schedule: Q04DX003 (ip), vehicle: saline) was 100 % of control; the T/C (dose: 6.25 mg/kg/injection, schedule: Q01DX009 (ip), vehicle: saline) was 104 % of control; the T/C (dose: 6.25 mg/kg/injection, schedule: Q04DX003 (ip), vehicle: saline) was 100 % of control; the T/C under setting [14] was 90 % of control.

As to `Cc1cccc(S(=O)(=O)F)c1`, the T/C by setting is: (dose: 37.5 mg/kg/injection, schedule: Q01DX009 (ip), vehicle: Klucel (hydroxypropylcellulose) (HPC)) 104 % of control; (dose: 75.0 mg/kg/injection, schedule: Q01DX009 (ip), vehicle: Klucel (hydroxypropylcellulose) (HPC)) 95 % of control; (dose: 150.0 mg/kg/injection, schedule: Q01DX009 (ip), vehicle: Klucel (hydroxypropylcellulose) (HPC)) 90 % of control.

For `CC1(C)N=C(N)N=C(N)N1c1ccc(CCCCc2ccc(S(=O)(=O)F)cc2)cc1`, for the setting “dose: 12.0 mg/kg/injection, schedule: Q01DX009 (ip), vehicle: saline”, the T/C was 150 % of control.

As for `Clc1nc2nc(C3CC3)[nH]c2nc1Cl`, the T/C is, setting by setting: under setting [12], 104 % of control; under setting [13], 100 % of control; under setting [15], 104 % of control.

Take `CCCCCCCCCCC(O)CCCCCCCCCC`: the T/C is, setting by setting: under setting [11], 100 % of control; under setting [12], 95 % of control; under setting [13], 90 % of control.

`C[N+](C)(C)/N=C1\CCc2ccccc21`: the T/C by setting is: (dose: 50.0 mg/kg/injection, schedule: Q04DX003 (ip), vehicle: saline with Tween-80) 95 % of control; under setting [8], 95 % of control; under setting [9], 95 % of control.

Regarding `CCCCCCCCCCCCNC(=O)OCCN(CCOC(=O)NCCCCCCCCCCCC)C(=O)COc1ccc(Cl)cc1`, the T/C is, setting by setting: (dose: 100.0 mg/kg/injection, schedule: Q04DX003 (ip), vehicle: other) 100 % of control; (dose: 200.0 mg/kg/injection, schedule: Q04DX003 (ip), vehicle: other) 100 % of control; (dose: 400.0 mg/kg/injection, schedule: Q04DX003 (ip), vehicle: other) 100 % of control.

Take `Cc1c(C)c([N+](=O)[O-])c(Br)c(C)c1[N+](=O)[O-]`: the T/C reads like this: under setting [12], 95 % of control; under setting [8], 104 % of control; (dose: 132.0 mg/kg/injection, schedule: Q04DX003 (ip), vehicle: saline with Tween-80) 109 % of control; under setting [13], 90 % of control; under setting [9], 118 % of control; (dose: 300.0 mg/kg/injection, schedule: Q04DX003 (ip), vehicle: saline with Tween-80) 100 % of control. Besides, the T/C is, setting by setting: under setting [15], 95 % of control; under setting [10], 122 % of control.

Consider `O=C(Nc1cccc(C(F)(F)F)c1)Nc1c(Oc2ccc(Cl)c(Cl)c2)ccc(Cl)c1S(=O)(=O)O`, for which the T/C is, setting by setting: under setting [4], 90 % of control; under setting [6], 100 % of control; under setting [7], 113 % of control.

As for `COCCCNC1=C(C#N)C(=O)NC(c2cccs2)S1` (centres undefined), the T/C under setting [11] was 100 % of control, the T/C under setting [12] was 117 % of control and the T/C under setting [13] was 121 % of control.

With `N#Cc1cnc2nc(N)nc(N)c2c1`, the T/C reads like this: under setting [3], 104 % of control; under setting [5], 107 % of control; under setting [6], 108 % of control; (dose: 200.0 mg/kg/injection, schedule: Q01DX009 (ip), vehicle: saline) 117 % of control; under setting [7], 116 % of control.

Regarding `O=C1NC(=O)C(=Cc2cc3c(cc2Br)OCO3)C(=O)N1`, the T/C reads like this: (dose: 75.0 mg/kg/injection, schedule: Q01DX009 (ip), vehicle: saline with Tween-80) 123 % of control; under setting [12], 124 % of control; (dose: 150.0 mg/kg/injection, schedule: Q01DX009 (ip), vehicle: saline with Tween-80) 120 % of control.

Regarding `Nc1ccc(N)c2c1C(=O)c1cccc([N+](=O)[O-])c1C2=O`, the T/C runs as follows: (dose: 25.0 mg/kg/injection, schedule: Q01DX010 (ip), vehicle: carboxymethylcellulose (CMC)) 95 % of control; (dose: 50.0 mg/kg/injection, schedule: Q01DX010 (ip), vehicle: carboxymethylcellulose (CMC)) 105 % of control; (dose: 100.0 mg/kg/injection, schedule: Q01DX010 (ip), vehicle: carboxymethylcellulose (CMC)) 115 % of control; (dose: 200.0 mg/kg/injection, schedule: Q01DX010 (ip), vehicle: carboxymethylcellulose (CMC)) 105 % of control; (dose: 400.0 mg/kg/injection, schedule: Q01DX010 (ip), vehicle: carboxymethylcellulose (CMC)) 110 % of control.

`CCOC(Cn1ccc(=O)[nH]c1=O)OCC`: the T/C is 100 % of control (dose: 100.0 mg/kg/injection, schedule: Q04DX003 (ip), vehicle: saline sonified); 104 % of control (dose: 200.0 mg/kg/injection, schedule: Q04DX003 (ip), vehicle: saline sonified); 109 % of control (dose: 400.0 mg/kg/injection, schedule: Q04DX003 (ip), vehicle: saline sonified).

Regarding `Cc1ccc(S(=O)(=O)Oc2ccc(-c3ccc(OS(=O)(=O)c4ccc(C)cc4)cc3)cc2)cc1`, the T/C is, setting by setting: under setting [11], 107 % of control; under setting [12], 111 % of control; under setting [13], 90 % of control; under setting [15], 94 % of control.

As for `NCCO/C=C/C(N)C(=O)O` (centres undefined), the T/C is 99 % of control under setting [1]; 100 % of control (dose: 6.0 mg/kg/injection, schedule: Q01DX009 (ip), vehicle: saline); 93 % of control (dose: 9.0 mg/kg/injection, schedule: Q01DX009 (ip), vehicle: saline); 104 % of control under setting [14]; 107 % of control under setting [2].

In the case of `O=[N+]([O-])C1(CO)COC(c2ccccc2)OC1` (centres undefined), the T/C is 109 % of control (dose: 100.0 mg/kg/injection, schedule: Q01DX009 (ip), vehicle: water); 95 % of control (dose: 100.0 mg/kg/injection, schedule: Q04DX003 (ip), vehicle: water); 86 % of control (dose: 200.0 mg/kg/injection, schedule: Q01DX009 (ip), vehicle: water); 100 % of control (dose: 200.0 mg/kg/injection, schedule: Q04DX003 (ip), vehicle: water); 90 % of control (dose: 400.0 mg/kg/injection, schedule: Q01DX009 (ip), vehicle: water); 104 % of control (dose: 400.0 mg/kg/injection, schedule: Q04DX003 (ip), vehicle: water).
